Data from patent US20070219213A1, “Use of Adrenergic N-Phenylpiperazine Antagonists, Pahrmaceutical Compositions Containning Them, and Methods of Preparing Them” (priority 2004, published 2007).

Target: T1, alpha 1A subtype (Rattus norvegicus, UniProt P43140)
T1 sequence (P43140 1-466): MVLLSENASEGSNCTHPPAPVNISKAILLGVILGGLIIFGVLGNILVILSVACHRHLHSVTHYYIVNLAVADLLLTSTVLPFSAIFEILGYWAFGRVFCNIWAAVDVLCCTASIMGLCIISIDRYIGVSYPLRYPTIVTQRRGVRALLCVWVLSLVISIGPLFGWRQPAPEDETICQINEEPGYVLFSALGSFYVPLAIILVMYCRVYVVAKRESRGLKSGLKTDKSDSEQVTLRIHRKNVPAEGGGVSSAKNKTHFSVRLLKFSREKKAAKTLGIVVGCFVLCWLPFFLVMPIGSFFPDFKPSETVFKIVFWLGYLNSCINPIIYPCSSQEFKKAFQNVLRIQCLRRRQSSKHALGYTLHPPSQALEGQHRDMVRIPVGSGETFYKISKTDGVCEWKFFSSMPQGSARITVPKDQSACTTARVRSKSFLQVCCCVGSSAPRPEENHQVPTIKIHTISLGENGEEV
Assay: [3H]prazosin binding assay in rat salivary gland
Settings: for selectivity index (I.S. alpha 1B/alpha 1A): alpha 1A versus alpha 1B subtype

SMILES: COc1ccccc1N1CCN(CCc2ccc3c(c2)OCO3)CC1 [LASSBio 772, 1-(2-1,3-Benzodioxol-5-yl-ethyl)-4-(2-methoxy-phenyl)-piperazine]
- IC50: 0.26 nM
- selectivity indexes of alpha 1A/alpha 1D versus alpha 1B subtype and beta 2, H1 and cholinergic muscarinic receptors: at least a thousand times
- selectivity index (I.S. alpha 1B/alpha 1A): ≥ 1700
- selectivity index (I.S. alpha 1B/alpha 1A) (listed as LASSBio-772): 1730
- Ki (rat salivary gland, Cheng Prussof): 0.14 nM
